Test results: patent US10392630B2, “Plants having increased tolerance to herbicides” (BASF AGRO B.V., priority 2013, dated 2019)
Changes are numbered by the printed parent chain.

What was measured:
Test in all cases: biochemical
[1] = target: T1, Amaranthus mutant PPO (AMARE) (Amaranthus tuberculatus, UniProt Q0NZW9, F420V)
T1 sequence (Q0NZW9 1-534 F420V): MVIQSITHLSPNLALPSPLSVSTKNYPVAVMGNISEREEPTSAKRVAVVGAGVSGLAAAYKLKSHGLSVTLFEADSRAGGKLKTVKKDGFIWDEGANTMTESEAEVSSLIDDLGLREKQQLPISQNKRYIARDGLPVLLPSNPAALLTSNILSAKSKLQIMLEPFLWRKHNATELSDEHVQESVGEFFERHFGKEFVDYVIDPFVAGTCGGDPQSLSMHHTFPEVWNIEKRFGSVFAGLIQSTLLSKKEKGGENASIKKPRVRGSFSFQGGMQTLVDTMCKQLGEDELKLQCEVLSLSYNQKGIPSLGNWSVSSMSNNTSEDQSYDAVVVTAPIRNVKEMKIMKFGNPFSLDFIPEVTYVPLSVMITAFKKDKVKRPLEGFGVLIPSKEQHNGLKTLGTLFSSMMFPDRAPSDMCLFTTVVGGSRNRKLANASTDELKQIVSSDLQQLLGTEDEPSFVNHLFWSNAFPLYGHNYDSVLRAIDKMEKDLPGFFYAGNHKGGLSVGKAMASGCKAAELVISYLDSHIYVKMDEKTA

[2] = target: T2, Amaranthus mutant PPO (AMARE) (Amaranthus tuberculatus, UniProt Q0NZW9, F420L/R128L)
T2 sequence (Q0NZW9 1-534 R128L/F420L): T1 sequence (Q0NZW9 1-534 F420V) with R128L, V420L

[3] = target: T3, Amaranthus mutant PPO (AMARE) (Amaranthus tuberculatus, UniProt Q0NZW9, F420M/R128I)
T3 sequence (Q0NZW9 1-534 R128I/F420M): T1 sequence (Q0NZW9 1-534 F420V) with R128I, V420M

[4] = target: T4, Amaranthus mutant PPO (AMARE) (Amaranthus tuberculatus, UniProt Q0NZW9, F420I/R128A)
T4 sequence (Q0NZW9 1-534 R128A/F420I): T1 sequence (Q0NZW9 1-534 F420V) with R128A, V420I

[5] = target: T5, Amaranthus mutant PPO (AMARE) (Amaranthus tuberculatus, UniProt Q0NZW9, F420L/R128I)
T5 sequence (Q0NZW9 1-534 R128I/F420L): T1 sequence (Q0NZW9 1-534 F420V) with R128I, V420L

Row | Structure (SMILES) | IC50 [1] [µM] | IC50 [2] [µM] | IC50 [3] [µM] | IC50 [4] [µM] | IC50 [5] [µM]
1 | C#CCN1C(=O)C(F)(F)Oc2cc(F)c(-n3c(=O)n(C)c(=S)n(C)c3=O)cc21 [BAS 850H] | 0.00161 | 1.71 | 0.246 | 0.0246 | 0.466
2 | CC(C)N(C)S(=O)(=O)NC(=O)c1cc(-n2c(=O)cc(C(F)(F)F)n(C)c2=O)c(F)cc1Cl [saflufenacil] | 1.59 | > 10 | > 10 | > 10 | > 10
